Measurements: US20170216240A1, “METHODS FOR MODULATING IKS CHANNEL ACTIVITY” (UNIVERSITY OF MIAMI, priority 2014, published 2017)

Assays:
intact guinea pig hearts = assay: Restoration of QT interval in intact hearts with E4031-induced Long QT; settings: ECG and ventricular surface action potential
Source text: Long QT syndrome was induced in intact guinea pig hearts by administration of the drug E4031, a HERG channel blocker.

Kv7.1/KCNE1 = biological target: T1, Kv7.1/KCNE1 (Homo sapiens, UniProt P51787); assay: G(V) shift of Kv7.1 co-expressed with KCNE1 in Xenopus oocytes, two-electrode voltage-clamp; type: cell-based; settings: 70 μM, pH 7.4; for ΔV1/2 ± SEM (G(V) shift): Kv7.1/E1
T1 construct: expressed in transfected cells; host or cells: Xenopus laevis oocytes (cRNA co-injection)
Source text: cDNAs encoding human Kv7.1 (GEnBAnk Acc. No. NM_000218) and KCNE1 (NM_000219) were subcloned into the expression vectors pGEM or pXOOM, containing the 5′- and 3′-untranslated regions for Xenopus laevis β-globin as well as a poly-A segment (Jespersen et al., Biotechniques 32, 536-538, 540 (2002)). The truncated KCNE1 construct KCNE1ΔC was constructed by introducing a Stop codon at position 67 using Quikchange site-directed mutagenesis kit (Qiagen). The construct was fully sequenced to ensure proper mutation and absence of unwanted mutations (sequencing by Genewiz). The concatemers E1-Kv7.1-Kv7.1 and E1-Kv7.1 were provided by Dr. R. S. Kass at Columbia University, and can be prepared as described in Chan et al. Journal of General Physiology 132(2), 135-144, (2012)). The E1-Kv7.1 construct was made by linking the C-terminus of KCNE1 to the N-terminus of KCNQ1. The E1-Kv7.1-Kv7.1 construct was made by digesting the E1-Kv7.1 and a Kv7.1-Kv7.1 dimer with Xho1 and inserting the 2-kb fragment from the Kv7.1-Kv7.1 dimer digest into the cut KCNE1-Kv7.1 construct. The DNA encoding E1-Kv7.1-Kv7.1 and E1-Kv7.1 were in the pGEM vector and contained mutations to make the constructs suitable for voltage-clamp fluorometry recordings (Wang et al., J Biol Chem 273, 34069-34074 (1998)). The original KCNE1 and Kv7.1 sequences were therefore removed, one at a time, from the pGEM vector using different restriction enzymes (New England Biolabs). Sequences were separated using gel electrophoresis and harvested using Qiagen gel extraction kit. Corresponding wild type sequences were ligated into the construct using T4 Ligase (New England Biolabs). To ensure correct sequence the constructs were sequenced (Genewiz) and tested with different restriction enzymes in combination with gel electrophoresis to measure length and conformation of the gene. cRNA for injection of all constructs was prepared from linearized DNA using the T7 mMessage mMachine transcription kit (Ambion) according to the manufactures instructions. RNA quality was checked by gel electrophoresis, and RNA concentrations were quantified by UV spectroscopy.
Xenopus laevis oocytes were isolated and maintained (Bentzen, B. H. et al. Neuropharmacology 51, 1068-1077 (2006)). Approximately 50 nl cRNA (50 ng Kv7.1, KCNE1-Kv7.1-Kv7.1 or KCNE1-Kv7.1 alternatively 25 ng Kv7.1 together with 8 ng KCNE1 or KCNE1ΔC) was injected into each oocyte using a Nanojet microinjector (Drummond). Electrophysiological experiments were made 2-5 days after injection. Currents were measured at room temperature with the two-electrode voltage-clamp technique (CA-1B Dagan amplifier). Currents were sampled at 1-3.3 kHz, filtered at 500 Hz, and not leakage corrected. […] A control solution containing (in mM): 88 NaCl, 1 KCl, 15 HEPES, 0.4 CaCl2, and 0.8 MgCl2 was used. NaOH was added to adjust pH to 7.4, yielding a final sodium concentration of about 100 mM. The holding voltage was generally set to −80 mV. Activation curves were generally elicited by stepping to test voltages between −110 and +60 mV (2-4 s durations and 10 mV increments) followed by a tail voltage of −30 mV. For recordings of Kv7.1 at pH 9 and pH 10, the holding voltage was set to more negative voltages because the largest DHA-induced shifts induced channel opening already at −80 mV. […] Therefore, in arachidonyl amine experiments a brief hyperpolarizing pulse of 50 ms to −120 mV was introduced between the test voltage and the tail voltage to relief the channels from inactivation.
Test compounds were dissolved in 99.5% ethanol to a concentration of 100 mM and stored at −20° C. (Börjesson et al., Biophys J 95, 2242-2253 (2008); Börjesson et al., Biophys J 98, 396-403 (2010)). Shortly before experiments, test compounds were diluted in control solution to the desired test concentration. Pure control solution was added to the bath using a gravity-driven perfusion system. […]

in vitro = settings: human, Caco-2

## CCCCC/C=C\C/C=C\C/C=C\C/C=C\CCCC(=O)NCCS(=O)(=O)O [N-AT, N-arachidonoyl taurine]
Intact guinea pig hearts
  QT interval in hearts with prolonged QT induced by E4031: restores the QT interval
Kv7.1/KCNE1
  ΔV1/2 ± SEM (G(V) shift): about −30 mV
Kv7.1/KCNE1; listed as N-arachidonoyl taurine
  ΔV1/2 ± SEM (G(V) shift): about −30 mV
Kv7.1/KCNE1; listed as N—AT
  ΔV1/2 ± SEM (G(V) shift): −27.0 ± 2.5 mV
Kv7.1/KCNE1; Kv7.1/KCNE1
  G(V) shift of a representative cell (control curve shifted): −24 mV
In vitro
  efflux ratio: 1.9
Caco-2 cells
  permeability coefficient (Papp): 22×10^−6 cms^−1
